Experimental data as given in patent US7482124B2, “Method of identifying a PPARgamma-agonist compound having a decreased likelihood of inducing dose-dependent peripheral edema” (Bristol-Myers Squibb Company, priority 2005, dated 2009).
Where “and” joins values, the source holds several entries; their conditions need not be identical. Equal entries are not always repeated.

Columns and labels:
[1] = system: human renin gene expression in CALU-6 cells; assay: Renin gene expression in CALU-6 cells, quantitative RT-PCR dose-titration; assay type: cell-based
Source text: (§1) Cell line maintenance: CALU-6 cells and growth media were obtained from ATCC® (Manassas, Va.). CALU-6 cells were recovered and expanded in complete growth media (Minimal Essential Media+Earle's Balanced Salt Solution, 1% penicillin/streptomycin, 10% Fetal Bovine Serum). Antibiotics and FBS were purchased from Invitrogen.
(§2) Compounds: Compound A, Compound B, Compound D, Compound C, Compound G, Compound F, Compound H, Compound I, Compound J and Compound K were synthesized at Bristol-Myers Squibb Co. Compound E was purified by reverse phase high-performance liquid chromatography from commercial pharmaceutical preparations. Compounds A, B, F, and G are dual PPAR alpha and gamma agonists; while compounds C, D, and E are single PPAR gamma agonists. Fenofibrate and DMSO were purchased from Sigma. […]
(§3) Quantitative RT-PCR experiments: CALU-6 cells were seeded on day 0 in at 5×10^5 cells/well, in 6-well tissue culture plates. […] RNA quantities were determined spectrophotometrically using a SPECTRAMAX® 384 spectrophotometer (Molecular Devices). […] All data were further analyzed using Microsoft Excel. Fold-change in gene expression upon treatment with compound was expressed as […] ΔCt, where ΔΔCt=(Ctrenin, endothelin-1−CtGAPDH)DMSO−(Ctrenin, endothelin-1−CtGAPDH)treatment. […] Dose-titration experiments were further analyzed using GraphPad Prism Software (GraphPad Inc) to derive EC50 values. […]

[2] = system: human endothelin-1 gene expression in CALU-6 cells; assay: Human endothelin-1 expression profile in CALU-6 cells by quantitative RT-PCR (Example 15); assay type: cell-based
Description: On account of the involvement of ET-1 in vascular tone maintenance, along with its involvement in numerous cardiovascular disease processes, the possibility that PPAR agonists may contribute to an agonist-induced edema mechanism of action through the modulation of endoethelin-1, was investigated using quantitative RT-PCR. Briefly, gene expression studies were performed using a cell line that was previously shown to express endogenous endothelin mRNA, CALU-6 (Lang et al., 1995).
The human lung carcinoma cell line, CALU-6, was obtained from ATCC®. […]
(§4) Compounds A, B, C, D, and F were synthesized at Bristol-Myers Squibb Co. Compound E was purified by reverse phase high-performance liquid chromatography from commercial pharmaceutical preparations. […] The final concentration of each PPAR-agonist used in the induction studies was 5×EC50 as determined from pre-adipocyte differentiation studies (data not shown). […]
(§5) CALU-6 cells were seeded on day 0 in replicates of six (or twelve for DMSO control), at 5×10^5 cells/well, in 6-well tissue culture plates. […] RNA quantities were determined spectrophotometrically using a SPECTRAMAX® 384 spectrophotometer (Molecular Devices). RNA quality was assessed using an Agilent 2100 Bioanalyzer (Agilent Technologies) following the manufacturer's recommendations. […]

diabetics = details: literature (Leff and Reed 2002; Nesto et al. 2003); cited from earlier work
patients = assay: Dose-dependent peripheral edema in Phase II clinical trials CV168-006 and CV168-008; assay type: in vivo, human
Description: Genomic DNA samples from patients enrolled in two Bristol-Myers Squibb Company Phase II clinical trials CV168-006 and CV168-008 trials were genotyped for 50 SNPs identified in the human renin gene (see Example 1) and evaluated for association with edema.
498 subjects enrolled in the CV168-006 trial and 232 subjects from the CV168-008 trial were analyzed in this study. All analyses were based on data collected up to 24 weeks, which was the duration of the short-term phase of the trials. DNA was extracted from frozen blood by a third-party (Genaissance Inc, North Carolina) using a salting-out method (Gentra Systems). All subjects gave written informed consent.
The association between peripheral edema and the renin single nucleotide polymorphisms of the present invention were investigated by applying statistical analysis to the results of the genotyping assays described elsewhere herein. The central hypothesis of this analysis is that a predisposition to develop dose-dependent peripheral edema may be conferred by specific genomic factors. The analysis attempted to identify one or more of these factors in genomic DNA samples from index cases and matched control subjects who were exposed to Compound A in two Bristol-Myers Squibb (BMS) clinical studies (see Example 2).
Sample. Investigators in the BMS clinical trials diagnosed dose-dependent peripheral edema in some subjects.
Table A provides a distribution of the frequency of dose-dependent peripheral edema by treatment arm.

[3] = system: human renin gene expression in CALU-6 cells; assay: Human renin expression in CALU-6 cells by microarray analysis (Example 8); assay type: cell-based; details: CALU-6, 5×EC50, 24 hr, FIGS. 12A-B
Description: As an independent measurement of the renin induction by PPAR agonists observed using RT-PCR (see Example 7 and FIG. 11), four of the experimental treatment groups described under the “Induction Experiments” section in Example 7, were analyzed on AFFYMETRIX® genechips, including; DMSO, Compound A, Compound B, and Compound E. Triplicate samples from each treatment group were analyzed.
All cDNA and cRNA synthesis as well as all hybridizations and subsequent washing steps were performed following the […]® Expression Analysis Technical Manual (Affymetrix). AFFYMETRIX® HG-U133A gene chips were used for all expression profiling studies in this invention.
Micro Array Suite (MAS) 5.0 (Affymetrix) software was used to pre-process all micro-array data. Each treated sample (including DMSO control) was first scaled to an average intensity value of 1500. The data was further analyzed in Excel '97 (Microsoft).
All treated samples were compiled into one Excel spreadsheet such that each compound treated sample (and DMSO control) was aligned for all 22283 genes on the HG-U133A […]®. Gene fold-change values were calculated by dividing the mean signal intensity of each treatment group by the mean signal intensity of the DMSO control. Pair-wise 2-tailed Student's t-tests were performed for each treatment group.

[4] = system: human renin gene expression in CALU-6 cells; assay: Human renin expression profile in CALU-6 cells by quantitative RT-PCR (Example 7); assay type: cell-based; details: qRT-PCR, CALU-6, 5×EC50, 24 hr, FIG. 11
Description: Since RAAS plays a fundamental role in fluid volume homeostasis, the possibility that PPAR agonists may contribute to agonist-induced edema mechanism of action through the modulation of other components of this system, specifically renin, was investigated using quantitative RT-PCR. Briefly, gene expression studies were performed using a cell line that was previously shown to express endogenous renin mRNA, CALU-6 (Lang et al., 1995).
The human lung carcinoma cell line, CALU-6, was chosen on account of it being previously shown to endogenously express renin. […]
as §4, §5

[5] = system: human endothelin-1 gene expression in CALU-6 cells; assay: Endothelin-1 gene expression in CALU-6 cells, quantitative RT-PCR dose-titration; assay type: cell-based
Source text: as §1, §2, §3

[6] = Dose E (133 subjects), 40 fold Dose A

SMILES: COc1ccc(OC(=O)N(CC(=O)O)Cc2ccc(OCCc3nc(-c4ccccc4)oc3C)cc2)cc1 [COM. A, N-[(4-methoxyphenoxy)carbonyl]-N-[[4-[2-(5-methyl-2-phenyl-4-oxazolyl)ethoxy]phenyl]methyl] glycine]
- increase of renin mRNA, factor ([1]; CALU-6, qRT-PCR, FIG. 21A): fifteen to twenty
- EC50 ([1]; Homo sapiens, mean ± SEM, renin up-regulation, dose-titration experiments (n = 3 to n = 18), CALU-6, 24 hr): 96.3 ± 32 nM
- difference in level of endothelin-1 repression compared to other PPAR agonists studied ([2]; CALU-6, 5×EC50): no significant difference
- human endothelin-1 expression, fold-change over DMSO treated cells ([2]; qRT-PCR, CALU-6, 5×EC50, 24 hr, FIGS. 16 and 17): significantly decrease
- edema in clinical use (diabetics): acceptable incidence and severity of edema
- Number of edema cases (patients; Dose A (79 subjects)): 16
- edema cases (%) (patients; Dose A (79 subjects)): 20%
- Number of edema cases (patients; Dose B (90 subjects)): 14
- edema cases (%) (patients; Dose B (90 subjects)): 16%
- Number of edema cases (patients; Dose C (125 subjects)): 13
- edema cases (%) (patients; Dose C (125 subjects)): 10%
- Number of edema cases (patients; Dose D (129 subjects)): 27
- edema cases (%) (patients; Dose D (129 subjects)): 21%
- Number of edema cases (patients; [6]): 54
- edema cases (%) (patients; [6]): 40% and 41%
- frequency of edema with dose (patients; dose increased from 0.5 mg to 20 mg): frequency of edema increased
- human renin expression, fold-change over DMSO treated cells [3]: significantly increased
- human renin expression, fold-change over DMSO treated cells [4]: significantly elevate
- down-regulation of endothelin-1 gene expression, factor ([5]; CALU-6, qRT-PCR, FIG. 21A): four to five
- IC50 ([5]; Homo sapiens, mean ± SEM, endothelin-1 down-regulation, dose-titration experiments (n = 3 to n = 18), CALU-6, 24 hr): 18 ± 6.07 nM
